The source of these data is article doi:10.1101/2025.11.04.686469, “Discovery of Host-Directed Small Molecules with Broad Anti-Leishmanial Efficacy” (bioRxiv, 2025).

The test system of data set [1] is intracellular L. donovani amastigotes. Put plainly: Luminescent-based evaluation of intracellular anti-leishmanial activity in THP-1 macrophages. Type of data set: cell-based, Leishmania donovani. The settings on record: intracellular Leishmania donovani in THP1 macrophages, luminescence assay (Supplemental Table 2); read-out: Lum IC50. A digest of the protocol: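 PMA-differentiated THP-1 macrophages (150 nM, 72 h) were infected 18 h with firefly luciferase-expressing L. donovani LV82 promastigotes, then washed. Infected cells were treated with compounds at 0.1-10 μM for 72 h. Surviving intracellular amastigotes were quantified by firefly luciferase luminescence after cell lysis and 10 min substrate incubation at room temperature.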

Data set [2] deals with THP-1 macrophages. Put plainly: Effect of compounds on host cell viability (MTT). Type of data set: cell-based. The settings on record: read-out: 24h LC50; THP1 macrophages, 24-hour incubation, MTT assay (Supplemental Table 2). In outline: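 THP-1 cells were differentiated with 150 nM PMA for 72 h, then exposed to compounds at 1–50 μM for 24 h; selected compounds were also run at 1–300 μM for 72 h. MTT at 0.5 mg/mL was added for 2 h at 37 °C, and formazan absorbance was read at 560 nm minus 670 nm.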

As to `NC(Cc1ccccc1)C(=O)N1CCC(Nc2ccc(-n3nc(C(F)(F)F)cc3-c3ccc(-c4ccc(C(F)(F)F)cc4)cc3)cc2)C1` (stereo not drawn) [Compound 61], the IC50 in data set [1] came to 2.3 µM. For the same compound, the CC50 in data set [2] is 6.1 µM.
For `CC(C)(C)c1ccc(-c2nc(C(F)(F)F)cn2-c2ccc(NC(=O)CN)cc2)cc1` [Compound 157] the same measures were more than 10 µM and 27.6 µM.
Taken in the same sequence, the figures for `FC(F)(F)c1cc(-c2cccnc2)n(-c2ccc(Br)cc2)n1` [Compound 249] were more than 10 µM and 50 µM.
For `FC(F)(F)c1ccc(-c2ccc(-c3cc(C(F)(F)F)nn3-c3ccc(NC4CCN(C5CCCCC5)C4)cc3)cc2)cc1` (stereo not drawn) [Compound 58] the same measures were 2.2 µM and 2.6 µM.
As for `NCC(=O)Nc1ccc(-n2cnc3ccccc32)cc1` [Compound 150], the half-maximal inhibitory concentration (IC50) in data set [1] was more than 10 µM. In addition, in data set [2], the CC50 was more than 50 µM.
Taken in the same sequence, the figures for `FC(F)(F)c1ccc(-c2ccc(-c3cc(C(F)(F)F)nn3-c3ccc(NC4CC(Cc5ccc(Cl)cc5)C4)cc3)cc2)cc1` (stereo not drawn) [Compound 66] were more than 10 µM and more than 50 µM.
As to `FC(F)(F)c1cn(-c2ccc(N3CCNCC3)cc2)c(-c2ccc(Cl)cc2)n1` [Compound 51], in data set [1], the IC50 amounted to 8.2 µM. For the same compound, in data set [2], the CC50 stood at 25.7 µM.
Taken in the same sequence, the figures for `FC(F)(F)c1cn(-c2ccc(Br)cc2)c(-c2ccc(Oc3ccccc3)cc2)n1` [Compound 219] were more than 10 µM and more than 50 µM.
In the case of `FC(F)(F)c1cc(C2CCCCC2)n(-c2ccc(OC3CCNC3)cc2)n1` (stereo not drawn) [Compound 375], in data set [1], the half-maximal inhibitory concentration (IC50) came out at 6.3 µM. In data set [2], the CC50 was found to be 12.3 µM.
On to `O=[N+]([O-])c1ccc(-c2cc(C(F)(F)F)nn2-c2ccc(Br)cc2)cc1` [Compound 143], for which the half-maximal inhibitory concentration (IC50) in data set [1] is more than 10 µM. Also, in data set [2], the CC50 was more than 50 µM.
`CC(C)C#Cc1ccc(-c2cc(C(F)(F)F)nn2-c2ccc(N3CCC(NC(=O)OC(C)(C)C)C3)cc2)cc1` (stereo not drawn) [Compound 97]: the IC50 in data set [1] was more than 10 µM. In data set [2], the CC50 was more than 50 µM.
Taken in the same sequence, the figures for `FC(F)(F)c1ccc(-c2ccc(-c3cc(C(F)(F)F)nn3-c3ccc(NC4CCN(Cc5ccccc5)C4)cc3)cc2)cc1` (stereo not drawn) [Compound 114] were more than 10 µM and 13.6 µM.
Turning to `FC(F)(F)Oc1ccc(-n2cc(C(F)(F)F)nc2-c2ccc(-c3ccccc3)cc2)cc1` [Compound 183], the IC50 in data set [1] was more than 10 µM. In addition, the CC50 in data set [2] was more than 50 µM.
For `N#Cc1ccc(CN2CCC(Nc3ccc(-n4nc(C(F)(F)F)cc4C4CCCCC4)cc3)CC2)cc1` [Compound 323] the same measures were 8.9 µM and 28.3 µM.
Taken in the same sequence, the figures for `CC(=O)NCCCN1CCC(Oc2ccc(-n3nc(C(F)(F)F)cc3C3CCCCC3)cc2)CC1` [Compound 428] were 8.9 µM and 11.4 µM.
As to `FC(F)(F)c1ccc(-c2ccc(-c3cc(C(F)(F)F)nn3-c3ccc(NC4CNC4)cc3)cc2)cc1` [Compound 3], the IC50 in data set [1] came to 1.8 µM. In data set [2], the CC50 turned out to be 11 µM.
Regarding `CC(C)(C)OC(=O)NC1CCN(c2ccc(-n3cc(C(F)(F)F)nc3-c3ccc(-c4ccccc4)cc3)cc2)C1` (stereo not drawn) [Compound 82], in data set [1], the 50% inhibitory concentration (IC50) was more than 10 µM. Further, the CC50 in data set [2] was more than 50 µM.
For `CC(C)(C)c1nc(C(F)(F)F)cn1-c1ccc(NC2CCNC2)cc1` (stereo not drawn) [Compound 330] the same measures were 6.2 µM and more than 50 µM.
For `CC(=O)c1ccc(-c2ccc(C(F)(F)F)cc2)cc1` [Compound 5] the same measures were 2.3 µM and 13.3 µM.
Taken in the same sequence, the figures for `FC(F)(F)c1cc(-c2ccccc2C(F)(F)F)n(-c2ccc(Br)cc2)n1` [Compound 255] were more than 10 µM and more than 50 µM.
As for `FC(F)(F)c1cc(C2CCCCC2)n(-c2ccc(Br)cc2)n1` [Compound 215], the concentration for half-maximal inhibition (IC50) in data set [1] is more than 10 µM. Also, in data set [2], the CC50 is more than 50 µM.
For `CC(C)(C)OC(=O)N[C@@H]1CCN(c2ccc(-n3nc(C(F)(F)F)cc3-c3ccc(-c4ccc(C(F)(F)F)cc4)cc3)cc2)C1` [Compound 127] the same measures were more than 10 µM and more than 50 µM.
For `CC(C)(C)c1cc(C(F)(F)F)nn1-c1ccc(Br)cc1` [Compound 201] the same measures were more than 10 µM and more than 50 µM.
For `FC(F)(F)c1cc(-c2cccnc2)n(-c2ccc(NC3CCNC3)cc2)n1` (stereo not drawn) [Compound 250] the same measures were more than 10 µM and more than 50 µM.
In the case of `FC(F)(F)c1ccc(-c2ccc(-c3cc(C(F)(F)F)nn3-c3ccc(N4CCNCC4)cc3)cc2)cc1` [Compound 208], in data set [1], the IC50 stood at 5.7 µM. In data set [2], the CC50 was 31 µM.
Taken in the same sequence, the figures for `CC(C)(C)c1ccc(-c2nc(C(F)(F)F)cn2-c2ccc([N+](=O)[O-])cc2)cc1` [Compound 146] were 4.4 µM and more than 50 µM.
Regarding `NC1CCN(c2ccc(-n3nc(C(F)(F)F)cc3C3CCCCC3)cc2)CC1` [Compound 324], the IC50 in data set [1] was found to be 1.9 µM. The CC50 in data set [2] turned out to be 27.5 µM.
`CN(C)c1ccc(-c2cc(C(F)(F)F)nn2-c2ccc(N3CCC(N)C3)cc2)cc1` (stereo not drawn) [Compound 231]: the IC50 in data set [1] was found to be 1.8 µM. Besides, in data set [2], the CC50 was determined as 10.8 µM.
For `NCC(=O)Nc1ccc(-n2nc(C(F)(F)F)cc2C2CCCCC2)cc1` [Compound 341] the same measures were 4 µM and 26.5 µM.
Turning to `O=C(Nc1ccc(-n2cc(C(F)(F)F)nc2-c2ccc(-c3ccccc3)cc2)cc1)C1CCCN1Cc1ccccc1` (stereo not drawn) [Compound 85], the IC50 in data set [1] is more than 10 µM. Moreover, the CC50 in data set [2] is more than 50 µM.
For `NCC(=O)Nc1ccc(-n2cc(C(F)(F)F)nc2-c2ccc(Br)cc2)cc1` [Compound 195] the same measures were more than 10 µM and 38.6 µM.
On to `Oc1ccc(CN2CCC(Nc3ccc(-n4nc(C(F)(F)F)cc4C4CCCCC4)cc3)CC2)cc1` [Compound 392], for which the IC50 in data set [1] is 4.7 µM. The CC50 in data set [2] turned out to be 25.9 µM.
For `FC(F)(F)c1ccc(-c2ccc(-c3cc(C(F)(F)F)nn3-c3ccc(NCCCCl)cc3)cc2)cc1` [Compound 67] the same measures were more than 10 µM and more than 50 µM.
In the case of `NCCN1CCC(Oc2ccc(-n3nc(C(F)(F)F)cc3C3CCCCC3)cc2)CC1` [Compound 416], the 50% inhibitory concentration (IC50) in data set [1] worked out at 1.3 µM. Also, in data set [2], the CC50 is 18.2 µM.
Taken in the same sequence, the figures for `FC(F)(F)C#Cc1ccc(-c2cc(C(F)(F)F)nn2-c2ccc(N3CCNCC3)cc2)cc1` [Compound 93] were more than 10 µM and 40 µM.
For `FC(F)(F)c1ccc(-c2ccc(-c3cc(C(F)(F)F)nn3-c3ccc(N4CC(NCc5ccccc5)C4)cc3)cc2)cc1` [Compound 112] the same measures were more than 10 µM and 6.3 µM.
For `Fc1cccc(CNC2CCN(c3ccc(-n4nc(C(F)(F)F)cc4C4CCCCC4)cc3)CC2)c1` [Compound 337] the same measures were 3.5 µM and 32.1 µM.
With `NC1CCN(c2ccc(-n3nc(C(F)(F)F)cc3-c3ccc(F)cc3)cc2)C1` (stereo not drawn) [Compound 248], the IC50 in data set [1] worked out at 2.6 µM. In addition, the CC50 in data set [2] came to 14.4 µM.
Taken in the same sequence, the figures for `NC1CCN(c2ccc(-n3nc(C(F)F)cc3-c3ccc(-c4ccc(C(F)(F)F)cc4)cc3)cc2)C1` (stereo not drawn) [Compound 281] were 2 µM and 14.3 µM.
Taken in the same sequence, the figures for `CC(C)(C)OC(=O)NCC(=O)Nc1ccc(-n2cc(C(F)(F)F)nc2-c2ccc(C(C)(C)C)cc2)cc1` [Compound 151] were more than 10 µM and 31.8 µM.
Taken in the same sequence, the figures for `FC(F)(F)c1cc(-c2ccc(-c3ccc(S(F)(F)(F)(F)F)cc3)cc2)n(-c2ccc(N3CCC(NCc4ccccc4)C3)cc2)n1` (stereo not drawn) [Compound 107] were more than 10 µM and more than 50 µM.
With `FC(F)(F)c1cn(-c2ccc(N3CCC(NCc4ccccc4)C3)cc2)c(-c2ccc(-c3ccccc3)cc2)n1` (stereo not drawn) [Compound 84], the 50% inhibitory concentration (IC50) in data set [1] came out at 6.5 µM. For the same compound, the CC50 in data set [2] was more than 50 µM.
Taken in the same sequence, the figures for `O=C(CCCCBr)N1CCC(Nc2ccc(-n3nc(C(F)(F)F)cc3-c3ccc(-c4ccc(C(F)(F)F)cc4)cc3)cc2)CC1` [Compound 117] were 6.1 µM and more than 50 µM.
For `CC(C)(C)OC(=O)NC1CCN(c2ccc(-n3nc(C(F)(F)F)cc3C(C)(C)C)cc2)C1` (stereo not drawn) [Compound 202] the same measures were 8.5 µM and more than 50 µM.
For `NCCCCCOc1ccc(CN2CCC(Oc3ccc(-n4nc(C(F)(F)F)cc4C4CCCCC4)cc3)CC2)cc1` [Compound 432] the same measures were 2.9 µM and 5.6 µM.
`FC(F)(F)c1ccc(-c2ccc(-c3cc(C(F)(F)F)nn3-c3ccc(N4CCNCC4)cc3)cc2)cc1` [Compound 220]: the IC50 in data set [1] was 1.3 µM. Besides, the CC50 in data set [2] amounted to 15.4 µM.
For `CC(=O)NCCCCCN1CCC(Oc2ccc(-n3nc(C(F)(F)F)cc3C3CCCCC3)cc2)CC1` [Compound 431] the same measures were 4.8 µM and 22.4 µM.
For `CN(C)c1ccc(-c2cc(C(F)(F)F)nn2-c2ccc(Br)cc2)cc1` [Compound 214] the same measures were more than 10 µM and more than 50 µM.
On to `FC(F)(F)c1ccc(-c2ccc(-c3nc(C(F)(F)F)cn3-c3ccc(NC4CCNC4)cc3)cc2)cc1` (stereo not drawn) [Compound 246], for which, in data set [1], the 50% inhibitory concentration (IC50) turned out to be 3.8 µM. Moreover, the CC50 in data set [2] turned out to be 5.5 µM.
For `FC(F)(F)c1ccc(-c2ccc(-c3cc(C(F)(F)F)nn3-c3ccc(NC4CCN(Cc5ccc(Cl)c(Cl)c5)CC4)cc3)cc2)cc1` [Compound 90] the same measures were more than 10 µM and more than 50 µM.
For the compound `Nc1ccc(-n2cc(C(F)(F)F)nc2-c2ccc(-c3ccc(C(F)(F)F)cc3)cc2)cc1` [Compound 156], the IC50 in data set [1] came to 5.8 µM. The CC50 in data set [2] worked out at 20.8 µM.

As usually defined, the IC50 is the concentration that gives 50% inhibition.
